In ChEMBL document CHEMBL1129230, “Inhibitory effects of scopadulcic acid B and its derivatives on bone resorption and osteoclast formation in vitro” (1996):

Assays:
Type in all cases: functional
[1] = species: Mus musculus; test: Inhibition of PTH-stimulated osteoclast-like cell formation at concentration 10 uM
[2] = species: Mus musculus; test: Inhibition of PTH-stimulated osteoclast-like cell formation at concentration 5 uM
[3] = species: Mus musculus; test: Inhibition of PTH-stimulated bone resorption at concentration of 5 uM
[4] = species: Mus musculus; test: Inhibition of PTH-stimulated osteoclast-like cell formation at concentration 2 uM
[5] = species: Mus musculus; test: Inhibition of PTH-stimulated bone resorption at concentration of 10 uM
[6] = species: Mus musculus; test: Inhibition of PTH-stimulated bone resorption at concentration of 2 uM
[7] = species: Mus musculus; test: compound was evaluated in vitro for the inhibition of PTH-stimulated osteoclast-like cell formation at concentration 5 uM
[8] = species: Mus musculus; test: compound was evaluated in vitro for the inhibition of PTH-stimulated osteoclast-like cell formation at concentration 2 uM
[9] = species: Mus musculus; test: compound was evaluated in vitro for the inhibition of PTH-stimulated osteoclast-like cell formation at concentration 10 uM
[10] = species: Mus musculus; test: compound was evaluated in vitro for the inhibition of PTH-stimulated osteoclast-like cell formation at concentration 0.5 uM
[11] = species: Mus musculus; test: compound was evaluated in vitro for the inhibition of PTH-stimulated osteoclast-like cell formation at concentration 0.05 uM
[12] = species: Mus musculus; test: compound was evaluated in vitro for the inhibition of PTH-stimulated osteoclast-like cell formation at concentration 0.1 uM

CC(=O)O[C@@H]1C[C@H]2CC(=O)[C@@]3(C)CC[C@@]2(C3)[C@@]2(C)CCC[C@@](C)(C(=O)O)[C@H]12
inhibition at 10 µM [1]: 37% | inhibition at 5 µM [2]: 27% | Inhibition [3]: 40% | inhibition at 2 µM [4]: -8% | Inhibition [5]: 47% | Inhibition [6]: 33%

CC(=O)O[C@H]1C[C@@H]2C[C@@H](OC(=O)c3ccccc3)[C@H]3[C@](C)(C(=O)O)CCC[C@]3(C)[C@]23CC[C@@]1(C)C3
Inhibition [3]: 18% | Inhibition [5]: 8% | Inhibition [6]: 21%

COC(=O)[C@]1(C)CCC[C@@]2(C)[C@H]1[C@H](OC(=O)c1ccccc1)C[C@H]1C[C@@H](OC(C)=O)[C@@]3(C)CC[C@]12C3
inhibition at 10 µM [1]: 112% | inhibition at 5 µM [2]: 70% | Inhibition [3]: 40% | inhibition at 2 µM [4]: 60% | Inhibition [5]: 37% | Inhibition [6]: 55%

C[C@]12CC[C@]3(C1)[C@H](CC2=O)C[C@@H](OC(=O)c1ccccc1)[C@H]1[C@@](CO)(C(=O)O)CCC[C@@]13C [SCOPADULCIC ACID A]
Inhibition [3]: 24% | Inhibition [5]: -14% | Inhibition [6]: 46%

C[C@]12CC[C@]3(C1)[C@H](CC2=O)C[C@@H](OC(=O)c1ccccc1)[C@H]1[C@](C)(C(=O)O)CCC[C@@]13C [SCOPADULCIC ACID B]
inhibition at 10 µM [1]: 87% | inhibition at 5 µM [2]: 74% | Inhibition [3]: 76% | inhibition at 2 µM [4]: 59% | Inhibition [5]: 94% | Inhibition [6]: 28%

CC(=O)O[C@@H]1C[C@@H]2C[C@@H](OC(=O)c3ccccc3)[C@H]3[C@](C)(C(=O)O)CCC[C@]3(C)[C@]23CC[C@@]1(C)C3
inhibition at 10 µM [1]: 79% | inhibition at 5 µM [2]: 72% | Inhibition [3]: 26% | inhibition at 2 µM [4]: 55% | Inhibition [5]: 42% | Inhibition [6]: 27%

C[C@]12CC[C@]3(C1)[C@H](C/C2=N\O)C[C@@H](OC(=O)c1ccccc1)[C@H]1[C@](C)(C(=O)O)CCC[C@@]13C
Inhibition [3]: 66% | Inhibition [5]: 90% | Inhibition [6]: 28%

COC(=O)[C@]1(C)CCC[C@@]2(C)[C@H]1[C@H](OC(=O)c1ccccc1)C[C@H]1C[C@H](O)[C@@]3(C)CC[C@]12C3
Inhibition [3]: -17% | Inhibition [5]: -10% | Inhibition [6]: -23%

CC(=O)OC[C@]1(C)CCC[C@@]2(C)C1[C@H](O)CC1C[C@H](OC(C)=O)[C@@]3(C)CC[C@]12C3 (stereo partly drawn)
Inhibition [3]: 23% | Inhibition [5]: 11% | Inhibition [6]: 1%

COC(=O)[C@]1(C)CCC[C@@]2(C)[C@H]1[C@H](OC(=O)c1ccccc1)C[C@H]1C[C@@H](O)[C@@]3(C)CC[C@]12C3
Inhibition [3]: 29% | Inhibition [5]: 49% | Inhibition [6]: 22%

C[C@@]1(CO)CCC[C@@]2(C)C1[C@H](OC(=O)c1ccccc1)C[C@H]1C[C@H](O)[C@@]3(C)CC[C@]12C3 (stereo partly drawn)
inhibition at 5 µM [7]: 75% | inhibition at 2 µM [8]: 24% | Inhibition [3]: 99% | inhibition at 10 µM [9]: 94% | Inhibition [6]: -51%

COC(=O)[C@]1(C)CCC[C@@]2(C)[C@H]1[C@H](OC(=O)c1ccccc1)C[C@H]1C[C@H](OC(C)=O)[C@@]3(C)CC[C@]12C3
inhibition at 10 µM [1]: 134% | inhibition at 5 µM [2]: 109% | Inhibition [3]: 51% | inhibition at 2 µM [4]: 81% | Inhibition [5]: 55% | Inhibition [6]: 38%

C[C@]12CC[C@]3(C1)C(CC2=O)C[C@@H](OC(=O)c1ccccc1)C1[C@](C)(CO)CCC[C@@]13C (stereo partly drawn)
inhibition at 10 µM [1]: 137% | inhibition at 5 µM [2]: 137% | Inhibition [3]: 99% | inhibition at 2 µM [4]: 137% | inhibition at 0.5 µM [10]: 137% | Inhibition [5]: 99% | inhibition at 0.05 µM [11]: 44% | Inhibition [6]: 106% | inhibition at 0.1 µM [12]: 115%

C[C@]12CC[C@]3(C1)[C@@H](C[C@@H](O)[C@H]1[C@](C)(CO)CCC[C@@]13C)C[C@H]2O
Inhibition [3]: 6% | Inhibition [5]: -17% | Inhibition [6]: -8%

COC(=O)[C@]1(C)CCC[C@@]2(C)[C@H]1[C@H](OC(=O)c1ccccc1)C[C@H]1CC(=O)[C@@]3(C)CC[C@]12C3
inhibition at 10 µM [1]: 118% | inhibition at 5 µM [2]: 91% | Inhibition [3]: 74% | inhibition at 2 µM [4]: 70% | Inhibition [5]: 110% | Inhibition [6]: 78%

C[C@]12CC[C@]3(C1)C(CC2=O)C[C@@H](O)C1[C@](C)(C(=O)O)CCC[C@@]13C (stereo partly drawn)
inhibition at 10 µM [1]: 20% | inhibition at 5 µM [2]: 10% | Inhibition [3]: 92% | inhibition at 2 µM [4]: 0% | Inhibition [5]: 94% | Inhibition [6]: 43%

C[C@@]1(CO)CCC[C@@]2(C)C1[C@H](OC(=O)c1ccccc1)C[C@H]1C[C@@H](O)[C@@]3(C)CC[C@]12C3 (stereo partly drawn)
inhibition at 10 µM [1]: 105% | inhibition at 5 µM [2]: 87% | Inhibition [3]: 95% | inhibition at 2 µM [4]: 17% | Inhibition [6]: -60%

C[C@]12CC[C@]3(C1)[C@@H](C[C@@H](OC(=O)c1ccccc1)[C@H]1[C@](C)(C(=O)O)CCC[C@@]13C)C[C@@H]2O
inhibition at 10 µM [1]: 93% | inhibition at 5 µM [2]: 75% | Inhibition [3]: 39% | inhibition at 2 µM [4]: 24% | Inhibition [5]: 70% | Inhibition [6]: 35%

CC(=O)OC[C@]1(C)CCC[C@@]2(C)[C@H]1[C@H](OC(=O)c1ccccc1)C[C@H]1CC(=O)[C@@]3(C)CC[C@]12C3
inhibition at 10 µM [1]: 105% | inhibition at 5 µM [2]: 90% | Inhibition [3]: 107% | inhibition at 2 µM [4]: 45% | Inhibition [5]: 125% | Inhibition [6]: 12%

C[C@]12CC[C@]3(C1)[C@H](C[C@H]2O)C[C@@H](OC(=O)c1ccccc1)[C@H]1[C@](C)(C(=O)O)CCC[C@@]13C
inhibition at 10 µM [1]: 104% | inhibition at 5 µM [2]: 87% | Inhibition [3]: 40% | inhibition at 2 µM [4]: 17% | Inhibition [5]: 37% | Inhibition [6]: 45%

C[C@]12CC[C@]3(C1)[C@@H](C[C@@H](O)[C@H]1[C@](C)(CO)CCC[C@@]13C)C[C@@H]2O
Inhibition [3]: -25% | Inhibition [5]: -4% | Inhibition [6]: -5%
